Results as given in patent US4746349A, “Method and compositions for suppressing the nitrification of ammonium in plant growth medium” (American Cyanamid Company, priority 1986, dated 1988).
Where a name gives a salt, the structure may show the parent alone.

Key:
Nitrosomonas spp. = experiment: Nitrification of ammonium in soil incubated at 25° C. (ammonium recovery, nitrate accumulation); conditions: soil 25° C.; for Concentration of nitrate nitrogen / Recovery of Ammonium Nitrogen: 200 ppm N; for Effectiveness as nitrification inhibitor, in words: 20 weeks study
Procedure, shortened: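 Ammonium recovery and nitrate accumulation read out after KCl extraction (2M, 1 h shaking) and steam distillation of ammonium, nitrite and nitrate. Soil was amended with 200 ppm N as ammonium sulfate and 0.10–0.50 ppm inhibitor, held at 50% water saturation at 25 °C, sampled 0–20 weeks in duplicate.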

corn (Pioneer 3352) = experiment: Field evaluation: yield of corn, sandy loam plots; type: in vivo; conditions: for AVERAGE YIELD 4-REPLICATES: sandy loam
Excerpt: (§1) Field Evaluation: Field evaluations are based on the N content of corn leaf tissue and grain yield utilizing two soil types. Replicate (4X) field plots are established at two different locations, one having (I) silt loam soil and one (II) with sandy loam soil. These soils had been previously cropped to non-fertilized corn to reduce the level of residual N. Maduramicin monoammonium salt is applied (0.25, 0.125, 0.07 ppm) with NH3 (84 or 168 kg N/ha) through a "downstream" by an injection system into silt loam plots. Nitrapyrin (0.25 ppm=0.56 kg a.i./ha), nitrogen checks, benzyl alcohol (1.16L/ha) (BA) and a O nitrogen check are included for comparison. Individual replicate plot sizes are 3.04M×22.8M (4, 76-cm corn rows×22.8M long) Anhydrous ammonia are injected on 76-cm centers.
Plots are then planted with corn the day following treatment. Dekalb T2000 is planted 10 May on silt loam plots and Pioneer 3352 is planted 11 May in sandy loam plots.
(§2) Corn ear leaf tissues collected at silking on silt loam plots or 60 days post silking (on silt loam and sandy loam plots) are collected from each plot and assayed for total N (AOAC procedures). Grain yields are determined by harvesting the two center rows×15.2 m of each plot.

[1] = system: corn (Dekalb T2000, B73×LH 38); experiment: Field evaluation: yield of corn, silt loam location; type: in vivo
Excerpt: as §1
(§3) Urea, treated or non-treated with Maduramicin monoammonium salt is broadcast on the surface of sandy loam plots. Plots are then planted with corn the day following treatment. Dekalb T2000 is planted 10 May on silt loam plots and Pioneer 3352 is planted 11 May in sandy loam plots.
as §2

[2] = system: corn (Dekalb T2000, B73×LH 38); experiment: Field evaluation: corn ear leaf tissue nitrogen, silt loam plots; type: in vivo; conditions: for Corn Leaf Tissue Analysis (total N): ear leaf at silking
Excerpt: as §1, §3, §2

## CO[C@@H]1[C@@H](OC)[C@H](C)[C@@](O)(CC(=O)O)O[C@H]1[C@H](C)[C@H]1O[C@@]2(CC[C@@](C)([C@H]3CC[C@@](C)([C@@H]4O[C@@H]([C@H]5O[C@](C)(O)[C@H](C)C[C@@H]5C)C[C@@H]4O[C@@H]4C[C@H](OC)[C@@H](OC)[C@H](C)O4)O3)O2)C[C@H](O)[C@H]1C [Maduramicin monoammonium salt, Maduramicin]
Nitrosomonas spp.; 0.10 ppm
  Effectiveness compared with 0.5 ppm nitrapyrin, in words: not as effective as the 0.5 ppm rate of nitrapyrin
Nitrosomonas spp.; 0.10 ppm, week 0
  Concentration of nitrate nitrogen: 18 PPM
  Recovery of Ammonium Nitrogen: 195 PPM
Nitrosomonas spp.; 0.10 ppm, week 1
  Concentration of nitrate nitrogen: 20 PPM
  Recovery of Ammonium Nitrogen: 168 PPM
Nitrosomonas spp.; 0.10 ppm, week 2
  Concentration of nitrate nitrogen: 19 PPM
  Recovery of Ammonium Nitrogen: 178 PPM
Nitrosomonas spp.; 0.10 ppm, week 4
  Concentration of nitrate nitrogen: 24 PPM
  Recovery of Ammonium Nitrogen: 176 PPM
Nitrosomonas spp.; 0.10 ppm, week 7
  Concentration of nitrate nitrogen: 75 PPM
  Recovery of Ammonium Nitrogen: 125 PPM
Nitrosomonas spp.; 0.10 ppm, week 9
  Concentration of nitrate nitrogen: 59 PPM
  Recovery of Ammonium Nitrogen: 110 PPM
Nitrosomonas spp.; 0.10 ppm, week 12
  Concentration of nitrate nitrogen: 152 PPM
  Recovery of Ammonium Nitrogen: 55 PPM
Nitrosomonas spp.; 0.10 ppm, week 16
  Concentration of nitrate nitrogen: 153 PPM
  Recovery of Ammonium Nitrogen: 67 PPM
Nitrosomonas spp.; 0.10 ppm, week 20
  Concentration of nitrate nitrogen: 134 PPM
  Recovery of Ammonium Nitrogen: 39 PPM
Nitrosomonas spp.; 0.1 to 0.5 ppm
  Specific inhibition of nitrification through activity against Nitrosomonas spp., in words: appear to specifically inhibit nitrification through activity against Nitrosomonas spp.
Nitrosomonas spp.; 0.25 ppm, week 0
  Concentration of nitrate nitrogen: 19 PPM
  Recovery of Ammonium Nitrogen: 194 PPM
Nitrosomonas spp.; 0.25 ppm, week 1
  Concentration of nitrate nitrogen: 18 PPM
  Recovery of Ammonium Nitrogen: 162 PPM
Nitrosomonas spp.; 0.25 ppm, week 2
  Concentration of nitrate nitrogen: 19 PPM
  Recovery of Ammonium Nitrogen: 164 PPM
Nitrosomonas spp.; 0.25 ppm, week 4
  Concentration of nitrate nitrogen: 19 PPM
  Recovery of Ammonium Nitrogen: 187 PPM
Nitrosomonas spp.; 0.25 ppm, week 7
  Concentration of nitrate nitrogen: 21 PPM
  Recovery of Ammonium Nitrogen: 198 PPM
Nitrosomonas spp.; 0.25 ppm, week 9
  Concentration of nitrate nitrogen: 25 PPM
  Recovery of Ammonium Nitrogen: 185 PPM
Nitrosomonas spp.; 0.25 ppm, week 12
  Concentration of nitrate nitrogen: 23 PPM
  Recovery of Ammonium Nitrogen: 192 PPM
Nitrosomonas spp.; 0.25 ppm, week 16
  Concentration of nitrate nitrogen: 64 PPM
  Recovery of Ammonium Nitrogen: 164 PPM
Nitrosomonas spp.; 0.25 ppm, week 20
  Concentration of nitrate nitrogen: 85 PPM
  Recovery of Ammonium Nitrogen: 102 PPM
Nitrosomonas spp.; 0.5 ppm
  Time through which nitrification is delayed or inhibited: ≥ 20 weeks
Nitrosomonas spp.; 0.50 ppm, week 0
  Concentration of nitrate nitrogen: 18 PPM
  Recovery of Ammonium Nitrogen: 194 PPM
Nitrosomonas spp.; 0.50 ppm, week 1
  Concentration of nitrate nitrogen: 20 PPM
  Recovery of Ammonium Nitrogen: 162 PPM
Nitrosomonas spp.; 0.50 ppm, week 2
  Concentration of nitrate nitrogen: 18 PPM
  Recovery of Ammonium Nitrogen: 166 PPM
Nitrosomonas spp.; 0.50 ppm, week 4
  Concentration of nitrate nitrogen: 21 PPM
  Recovery of Ammonium Nitrogen: 170 PPM
Nitrosomonas spp.; 0.50 ppm, week 7
  Concentration of nitrate nitrogen: 21 PPM
  Recovery of Ammonium Nitrogen: 194 PPM
Nitrosomonas spp.; 0.50 ppm, week 9
  Concentration of nitrate nitrogen: 25 PPM
  Recovery of Ammonium Nitrogen: 193 PPM
Nitrosomonas spp.; 0.50 ppm, week 12
  Concentration of nitrate nitrogen: 18 PPM
  Recovery of Ammonium Nitrogen: 189 PPM
Nitrosomonas spp.; 0.50 ppm, week 16
  Concentration of nitrate nitrogen: 28 PPM
  Recovery of Ammonium Nitrogen: 209 PPM
Nitrosomonas spp.; 0.50 ppm, week 20
  Concentration of nitrate nitrogen: 44 PPM
  Recovery of Ammonium Nitrogen: 175 PPM
Nitrosomonas spp.; X-14868A monammonium salt
  Effectiveness as nitrification inhibitor, in words: most effective nitrification inhibitor
Nitrosomonas spp.; X-14868 monoammonium salt
  Effectiveness as nitrification inhibitor, in words: considerably more effective than nitrapyrin
Corn (Pioneer 3352); 0.56 kg a.i./hectare, both rates of NH3 and the lower rate of urea
  Yield at the sandy loam location, in words: significantly higher
Corn (Pioneer 3352); N 84 kg/ha as NH3, chemical 0.11 kg/ha
  AVERAGE YIELD 4-REPLICATES: 155.7 HECTOLITERS/HECTARE
Corn (Pioneer 3352); N 84 kg/ha as NH3, chemical 0.28 kg/ha
  AVERAGE YIELD 4-REPLICATES: 159.2 HECTOLITERS/HECTARE
Corn (Pioneer 3352); N 84 kg/ha as NH3, chemical 0.56 kg/ha
  AVERAGE YIELD 4-REPLICATES: 165.3 HECTOLITERS/HECTARE
Corn (Pioneer 3352); N 168 kg/ha as NH3, chemical 0.11 kg/ha
  AVERAGE YIELD 4-REPLICATES: 163.6 HECTOLITERS/HECTARE
Corn (Pioneer 3352); N 168 kg/ha as NH3, chemical 0.28 kg/ha
  AVERAGE YIELD 4-REPLICATES: 174.9 HECTOLITERS/HECTARE
Corn (Pioneer 3352); N 168 kg/ha as NH3, chemical 0.56 kg/ha
  AVERAGE YIELD 4-REPLICATES: 176.6 HECTOLITERS/HECTARE
[1]; N 84 kg/ha, chemical 0.11 kg/ha
  AVERAGE YIELD 4-REPLICATES: 136.6 HECTOLITERS/HECTARE
[1]; N 84 kg/ha, chemical 0.28 kg/ha
  AVERAGE YIELD 4-REPLICATES: 129.6 HECTOLITERS/HECTARE
[1]; N 84 kg/ha, chemical 0.56 kg/ha
  AVERAGE YIELD 4-REPLICATES: 131.4 HECTOLITERS/HECTARE
[1]; N 168 kg/ha, chemical 0.11 kg/ha
  AVERAGE YIELD 4-REPLICATES: 154.0 HECTOLITERS/HECTARE
[1]; N 168 kg/ha, chemical 0.28 kg/ha
  AVERAGE YIELD 4-REPLICATES: 146.2 HECTOLITERS/HECTARE
[1]; N 168 kg/ha, chemical 0.56 kg/ha
  AVERAGE YIELD 4-REPLICATES: 147.9 HECTOLITERS/HECTARE
[2]; inhibitor 0.28 kg/ha, NH3 84 kg N/ha
  Corn Leaf Tissue Analysis (total N): 256 10^2 ug/g
[2]; inhibitor 0.28 kg/ha, NH3 168 kg N/ha
  Corn Leaf Tissue Analysis (total N): 275 10^2 ug/g
[2]; inhibitor 0.56 kg/ha, NH3 84 kg N/ha
  Corn Leaf Tissue Analysis (total N): 258 10^2 ug/g
[2]; inhibitor 0.56 kg/ha, NH3 168 kg N/ha
  Corn Leaf Tissue Analysis (total N): 281 10^2 ug/g
[2]; silt loam plots
  More nitrogen in leaf tissue than control plots with similar nitrogen: 15-25%
[2]; three rates, silt loam plots
  Tissue N compared with nitrapyrin-treated plants, in words: slightly higher than nitrapyrin-treated plants
